Measurements reported in DBAASP.
≈ marks a conversion by molar mass, not a printed value. Where “and” joins values, the source holds several entries; their conditions need not be identical. Equal entries are not always repeated. Each block holds one compound with its values, some of them ahead of it.

Legend:
Assay in all cases: ≥ marks a high value that may be exact or a test limit, other limits are often not marked, values filed in µg/mL are converted to µM
[1] = tested on: Klebsiella aerogenes ATCC 13048
Escherichia coli DL7 = tested on: Escherichia coli DL7
Bacillus subtilis PS832 = tested on: Bacillus subtilis PS832
[2] = tested on: Staphylococcus epidermidis ATCC 12228
[3] = tested on: Escherichia coli ATCC 25922
[4] = tested on: Pseudomonas aeruginosa ATCC 27853
[5] = tested on: Staphylococcus aureus ATCC 25923
[6] = tested on: Staphylococcus epidermidis KCTC 1917
[7] = tested on: Pseudomonas aeruginosa KCTC 1637
[8] = tested on: Candida albicans KCTC 7270
[9] = tested on: Bacillus subtilis KCTC 1918
[10] = tested on: Trichosporon beigelii KCTC 7707
[11] = tested on: Staphylococcus aureus KCTC 1621
[12] = tested on: Salmonella typhimurium KCTC 1926
[13] = tested on: Escherichia coli KCTC 1682
[14] = tested on: Saccharomyces cerevisiae KCTC 7296
Escherichia coli D21 = tested on: Escherichia coli D21
[15] = tested on: Salmonella enterica subsp. enterica serovar Typhimurium ATCC 14028
Bacillus megaterium Bm11 = tested on: Bacillus megaterium Bm11
[16] = tested on: Serratia marcescens ATCC 8100
Escherichia coli ML-35 = tested on: Escherichia coli ML-35
[17] = tested on: Staphylococcus aureus ATCC 9144
Escherichia coli HB101 = tested on: Escherichia coli HB101
[18] = tested on: Corynebacterium glutamicum ATCC 13032

Structure (SMILES): CC(C)C[C@H](NC(=O)[C@H](CCCCN)NC(=O)[C@H](C)NC(=O)[C@H](CC(C)C)NC(=O)[C@H](CCCCN)NC(=O)[C@H](CCCCN)NC(=O)[C@H](C)NC(=O)[C@H](CC(C)C)NC(=O)[C@H](CCCCN)NC(=O)[C@H](C)NC(=O)[C@H](CC(C)C)NC(=O)[C@H](CCCCN)NC(=O)[C@H](Cc1cnc[nH]1)NC(=O)[C@H](C)NC(=O)[C@@H](N)CC(=O)O)C(=O)N[C@@H](C)C(=O)N[C@@H](CCCCN)C(N)=O [DAHKLAKLAKKLAKLAK]
MIC [1]: ≥ 32 µM | MIC (Escherichia coli DL7): 0.25 µM (≈ 0.462 µg/mL) | MIC (Bacillus subtilis PS832): 0.25 µM and 0.5 µM | MIC [2]: 4 µM (≈ 7.39 µg/mL)

Structure (SMILES): CC(C)C[C@H](NC(=O)[C@H](CCCCN)NC(=O)[C@H](C)NC(=O)[C@H](CC(C)C)NC(=O)[C@H](CCCCN)NC(=O)[C@H](CCCCN)NC(=O)[C@H](C)NC(=O)[C@H](CC(C)C)NC(=O)[C@H](CCCCN)NC(=O)[C@H](C)NC(=O)[C@H](CC(C)C)NC(=O)[C@@H](N)CCCCN)C(=O)N[C@@H](C)C(=O)N[C@@H](CCCCN)C(N)=O [KLAKLAKKLAKLAK]
MIC [1]: ≥ 32 µM | MIC (Escherichia coli DL7): 1 µM (≈ 1.52 µg/mL) | MIC (Bacillus subtilis PS832): 0.5 µM and 0.25 µM | MIC [3]: 6 µM (≈ 9.14 µg/mL) | MIC [4]: 6 µM (≈ 9.14 µg/mL) | MIC [5]: 6 µM (≈ 9.14 µg/mL) | MIC [2]: 4 µM (≈ 6.09 µg/mL)

Structure (SMILES): CC[C@H](C)[C@H](NC(=O)[C@H](CCCCN)NC(=O)[C@H](CO)NC(=O)[C@H](Cc1ccccc1)NC(=O)[C@H](CC(C)C)NC(=O)[C@H](CCCCN)NC(=O)[C@H](CCC(=O)O)NC(=O)[C@H](CC(C)C)NC(=O)[C@H](CCCN=C(N)N)NC(=O)[C@H](CCCCN)NC(=O)[C@H](Cc1ccccc1)NC(=O)[C@@H](NC(=O)[C@@H](N)CCCCN)C(C)C)C(N)=O [KVFKRLEKLFSKI]
MIC [6]: 6.25 µM (≈ 10.2 µg/mL) | MIC [7]: 1.56 µM (≈ 2.55 µg/mL) | MIC [8]: 25 µM (≈ 40.9 µg/mL) | MIC [9]: 2.21 µM (≈ 3.61 µg/mL) | MIC [10]: 1.56 µM (≈ 2.55 µg/mL) | MIC [11]: 6.25 µM (≈ 10.2 µg/mL) | MIC [12]: 0.78 µM (≈ 1.28 µg/mL) | MIC [13]: 3.12 µM (≈ 5.11 µg/mL) | MIC [14]: 8.84 µM (≈ 14.5 µg/mL)

Further lines, results first:

MIC (Escherichia coli D21): ≥ 64 µM | MIC [15]: > 64 µM | MIC (Bacillus megaterium Bm11): ≥ 64 µM | MIC [16]: ≥ 64 µM | MIC [2]: > 64 µM | MIC (Escherichia coli ML-35): ≥ 64 µM
Structure (SMILES): CC(C)C[C@H](NC(=O)[C@H](Cc1ccc(O)cc1)NC(=O)[C@@H]1CCCN1C(=O)[C@@H]1CCCN1C(=O)[C@H](CCCN=C(N)N)NC(=O)[C@@H]1CCCN1C(=O)[C@H](CC(N)=O)NC(=O)[C@H](CC(N)=O)NC(=O)[C@@H](N)CC(N)=O)C(=O)N1CCC[C@H]1C(=O)N[C@@H](CCCN=C(N)N)C(=O)N1CCC[C@H]1C(=O)N[C@@H](CCCN=C(N)N)C(=O)N1CCC[C@H]1C(=O)N1CCC[C@H]1C(=O)O [NNNPRPPYLPRPRPP]

MIC [17]: ≥ 100 µM | MIC (Escherichia coli HB101): ≥ 100 µM | MIC [3]: > 100 µM | MIC [4]: > 100 µM | MIC [18]: 6.3 µM (≈ 14 µg/mL)
Structure (SMILES): CC[C@H](C)[C@H](NC(=O)[C@@H]1CCCN1C(=O)[C@H](CCCCN)NC(=O)[C@@H]1CCCN1C(=O)[C@H](CCCN=C(N)N)NC(=O)CNC(=O)[C@@H]1CCCN1C(=O)[C@H](Cc1ccccc1)NC(=O)[C@@H]1CCCN1C(=O)[C@H](CCCN=C(N)N)NC(=O)[C@@H]1CCCN1C(=O)[C@H](CCCN=C(N)N)NC(=O)CNC(=O)[C@@H]1CCCN1C(=O)[C@@H](N)CO)C(=O)N[C@@H](Cc1ccccc1)C(=O)N[C@@H](CCCN=C(N)N)C(=O)N1CCC[C@H]1C(=O)N[C@@H](CCCN=C(N)N)C(=O)O [SPGRPRPFPGRPKPIFRPR]
